Experimental data: patent EP0726261A1, “Herbidical 1,2,4 thiadiazoles” (American Cyanamid Company, priority 1995, dated 1996)

Tests used:
Format in all cases: in vivo
[1] = test system: Setaria viridis; experiment: Preemergence herbicidal activity (Example 67); set-up: herbicide rating, SETVI: scale not given here; conditions: pre, 800 g/ha; for herbicide rating, SETVI: rated about 1-3 weeks after treatment
Protocol: (§1) Herbicidal evaluation of compounds of the invention is conducted on the following plant species:
(§2) The soil is a prepared horticultural substrate containing 30% peat, 20% volcanic clay, 30% bark residues and 20% polyamide/styromull in a 1:3 mixture with loamy sand. Test solutions are prepared by dissolving the test compound in acetone containing 0.5% of an alkylphenol/ethylene oxide condensate under the trademark, TRITON® X-155, and diluting with water as needed. The test solutions are applied as a spray to the 3-6 week old seedling plants at dose rates corresponding to 800g/ha in a volume equivalent to 400 L/ha. A pneumatic spraying device employing a Teejet nozzle SS 8002E operating at 3 bar is used for a predetermined time. After spraying, the treated plants are placed on greenhouse benches and cared for in a manner commensurate with conventional greenhouse practice. After 10-21 days, the treated plants are evaluated and rated according to the rating system provided below.
(§3) The soil surface is then sprayed with test solutions as described in the postemergence evaluation hereinabove. After spraying, the treated cups are placed on greenhouse benches and cared for in the manner commensurate with conventional greenhouse practice. About 1-3 weeks after treatment the cups are evaluated and rated according to the rating system provided hereinabove.

[2] = test system: Hordeum vulgare; experiment: Preemergence herbicidal activity (Example 67); set-up: herbicide rating, HORVW: scale not given here; conditions: pre, 800 g/ha; for herbicide rating, HORVW: rated about 1-3 weeks after treatment
Protocol: as §1, §2, §3

[3] = test system: Zea mays; experiment: Preemergence herbicidal activity (Example 67); conditions: pre, 800 g/ha; for herbicide rating, ZEAMX: rated about 1-3 weeks after treatment
Protocol: as §1, §2, §3

[4] = test system: Amaranthus retroflexus; experiment: Preemergence herbicidal activity (Example 67); conditions: pre, 800 g/ha; for herbicide rating, AMARE: rated about 1-3 weeks after treatment
Protocol: as §1, §2, §3

[5] = test system: Helianthus annuus; experiment: Preemergence herbicidal activity (Example 67); conditions: pre, 800 g/ha; for herbicide rating, HELAN: rated about 1-3 weeks after treatment
Protocol: as §1, §2, §3

[6] = test system: Galium aparine; experiment: Preemergence herbicidal activity (Example 67); conditions: pre, 800 g/ha; for herbicide rating, GALAP: rated about 1-3 weeks after treatment
Protocol: as §1, §2, §3

[7] = test system: Ipomoea hederacea; experiment: Preemergence herbicidal activity (Example 67); conditions: pre, 800 g/ha; for herbicide rating, IPOHE: rated about 1-3 weeks after treatment
Protocol: as §1, §2, §3

[8] = test system: Veronica persica; experiment: Preemergence herbicidal activity (Example 67); conditions: pre, 800 g/ha; for herbicide rating, VERPE: rated about 1-3 weeks after treatment
Protocol: as §1, §2, §3

[9] = test system: Chenopodium album; experiment: Preemergence herbicidal activity (Example 67); conditions: pre, 800 g/ha; for herbicide rating, CHEAL: rated about 1-3 weeks after treatment
Protocol: as §1, §2, §3

[10] = test system: Abutilon theophrasti; experiment: Preemergence herbicidal activity (Example 67); conditions: pre, 800 g/ha; for herbicide rating, ABUTH: rated about 1-3 weeks after treatment
Protocol: as §1, §2, §3

[11] = test system: Triticum aestivum; experiment: Preemergence herbicidal activity (Example 67); set-up: herbicide rating, TRZAW: scale not given here; conditions: pre, 800 g/ha; for herbicide rating, TRZAW: rated about 1-3 weeks after treatment
Protocol: as §1, §2, §3

[12] = test system: Setaria viridis; experiment: Postemergence herbicidal activity (Example 67); conditions: pos, 800 g/ha; for herbicide rating, SETVI: rated after 10-21 days
Protocol: as §1, §2

[13] = test system: Zea mays; experiment: Postemergence herbicidal activity (Example 67); conditions: pos, 800 g/ha; for herbicide rating, ZEAMX: rated after 10-21 days
Protocol: as §1, §2

[14] = test system: Amaranthus retroflexus; experiment: Postemergence herbicidal activity (Example 67); conditions: pos, 800 g/ha; for herbicide rating, AMARE: rated after 10-21 days
Protocol: as §1, §2

[15] = test system: Hordeum vulgare; experiment: Postemergence herbicidal activity (Example 67); conditions: pos, 800 g/ha; for herbicide rating, HORVW: rated after 10-21 days
Protocol: as §1, §2

[16] = test system: Helianthus annuus; experiment: Postemergence herbicidal activity (Example 67); conditions: pos, 800 g/ha; for herbicide rating, HELAN: rated after 10-21 days
Protocol: as §1, §2

[17] = test system: Galium aparine; experiment: Postemergence herbicidal activity (Example 67); conditions: pos, 800 g/ha; for herbicide rating, GALAP: rated after 10-21 days
Protocol: as §1, §2

[18] = test system: Ipomoea hederacea; experiment: Postemergence herbicidal activity (Example 67); conditions: pos, 800 g/ha; for herbicide rating, IPOHE: rated after 10-21 days
Protocol: as §1, §2

[19] = test system: Alopecurus myosuroides; experiment: Postemergence herbicidal activity (Example 67); conditions: pos, 800 g/ha; for herbicide rating, ALOMY: rated after 10-21 days
Protocol: as §1, §2

[20] = test system: Triticum aestivum; experiment: Postemergence herbicidal activity (Example 67); conditions: pos, 800 g/ha; for herbicide rating, TRZAW: rated after 10-21 days
Protocol: as §1, §2

[21] = test system: Veronica persica; experiment: Postemergence herbicidal activity (Example 67); conditions: pos, 800 g/ha; for herbicide rating, VERPE: rated after 10-21 days
Protocol: as §1, §2

[22] = test system: Chenopodium album; experiment: Postemergence herbicidal activity (Example 67); conditions: pos, 800 g/ha; for herbicide rating, CHEAL: rated after 10-21 days
Protocol: as §1, §2

[23] = test system: Abutilon theophrasti; experiment: Postemergence herbicidal activity (Example 67); conditions: pos, 800 g/ha; for herbicide rating, ABUTH: rated after 10-21 days
Protocol: as §1, §2

[24] = test system: Alopecurus myosuroides; experiment: Preemergence herbicidal activity (Example 67); set-up: herbicide rating, ALOMY: scale not given here; conditions: pre, 800 g/ha; for herbicide rating, ALOMY: rated about 1-3 weeks after treatment
Protocol: as §1, §2, §3

SMILES: C[C@H](NC(=O)c1nsc(-c2ccccc2F)n1)c1ccccc1 [Example 56, (S)-5-(2-Fluorophenyl)-[1,2,4]thiadiazole-3-carboxylic acid, 1-(phenylethyl)amide]
- SET VI rating [1]: 2 (6-15%)
- HOR VW rating [2]: 0
- ZEA MX rating [3]: 0
- AMA RE rating [4]: 5 (45-64%)
- HEL AN rating [5]: 0
- GAL AP rating [6]: 0
- IPO HE rating [7]: 3 (16-29%)
- VER PE rating [8]: 4 (30-44%)
- CHE AL rating [9]: 2 (6-15%)
- ABU TH rating [10]: 2 (6-15%)
- TRZ AW rating [11]: 0
- SET VI rating [12]: 8 (91-99%)
- ZEA MX rating [13]: 4 (30-44%)
- AMA RE rating [14]: 7 (80-90%)
- HOR VW rating [15]: 5 (45-64%)
- HEL AN rating [16]: 8 (91-99%)
- GAL AP rating [17]: 6 (65-79%)
- IPO HE rating [18]: 8 (91-99%)
- ALO MY rating [19]: 5 (45-64%)
- TRZ AW rating [20]: 5 (45-64%)
- VER PE rating [21]: 7 (80-90%)
- CHE AL rating [22]: 4 (30-44%)
- ABU TH rating [23]: 9 (100% effect)
- ALO MY rating [24]: 0

SMILES: O=C(NCc1cccs1)c1nc(-c2ccccc2F)ns1 [Example 50]
- SET VI rating [1]: 0
- HOR VW rating [2]: 1 (1-5%)
- ZEA MX rating [3]: 0
- AMA RE rating [4]: 0
- HEL AN rating [5]: 0
- GAL AP rating [6]: 0
- IPO HE rating [7]: 0
- VER PE rating [8]: 0
- CHE AL rating [9]: 0
- ABU TH rating [10]: 0
- TRZ AW rating [11]: 0
- SET VI rating [12]: 5 (45-64%)
- ZEA MX rating [13]: 0
- AMA RE rating [14]: 0
- HOR VW rating [15]: 2 (6-15%)
- HEL AN rating [16]: 3 (16-29%)
- GAL AP rating [17]: 2 (6-15%)
- IPO HE rating [18]: 0
- ALO MY rating [19]: 0
- TRZ AW rating [20]: 1 (1-5%)
- VER PE rating [21]: 0
- CHE AL rating [22]: 3 (16-29%)
- ABU TH rating [23]: 0
- ALO MY rating [24]: 3 (16-29%)

SMILES: C[C@H](NC(=O)c1nc(C=Cc2ccccc2)ns1)c1ccccc1 [Example 30]
- herbicide rating, SETVI [1]: 0
- herbicide rating, HORVW [2]: 0
- herbicide rating, ZEAMX [3]: 0
- herbicide rating, AMARE [4]: 0
- herbicide rating, HELAN [5]: 0
- herbicide rating, GALAP [6]: 0
- herbicide rating, IPOHE [7]: 0
- herbicide rating, VERPE [8]: 0
- herbicide rating, CHEAL [9]: 0
- herbicide rating, ABUTH [10]: 2 (6-15%)
- herbicide rating, TRZAW [11]: 0
- herbicide rating, SETVI [12]: 3 (16-29%)
- herbicide rating, ZEAMX [13]: 0
- herbicide rating, AMARE [14]: 2 (6-15%)
- herbicide rating, HORVW [15]: 0
- herbicide rating, HELAN [16]: 2 (6-15%)
- herbicide rating, GALAP [17]: 4 (30-44%)
- herbicide rating, IPOHE [18]: 4 (30-44%)
- herbicide rating, ALOMY [19]: 1 (1-5%)
- herbicide rating, TRZAW [20]: 2 (6-15%)
- herbicide rating, VERPE [21]: 0
- herbicide rating, CHEAL [22]: 4 (30-44%)
- herbicide rating, ABUTH [23]: 3 (16-29%)
- herbicide rating, ALOMY [24]: 0

SMILES: CC(NC(=O)c1nc(-c2ccccc2F)ns1)c1cccs1 (racemic) [Example 38]
- herbicide rating, SETVI [1]: 0
- herbicide rating, HORVW [2]: 0
- herbicide rating, ZEAMX [3]: 0
- herbicide rating, AMARE [4]: 4 (30-44%)
- herbicide rating, HELAN [5]: 0
- herbicide rating, GALAP [6]: 0
- herbicide rating, IPOHE [7]: 0
- herbicide rating, VERPE [8]: 2 (6-15%)
- herbicide rating, CHEAL [9]: 5 (45-64%)
- herbicide rating, ABUTH [10]: 0
- herbicide rating, TRZAW [11]: 0
- herbicide rating, SETVI [12]: 8 (91-99%)
- herbicide rating, ZEAMX [13]: 3 (16-29%)
- herbicide rating, AMARE [14]: 3 (16-29%)
- herbicide rating, HORVW [15]: 3 (16-29%)
- herbicide rating, HELAN [16]: 7 (80-90%)
- herbicide rating, GALAP [17]: 5 (45-64%)
- herbicide rating, IPOHE [18]: 5 (45-64%)
- herbicide rating, ALOMY [19]: 4 (30-44%)
- herbicide rating, TRZAW [20]: 3 (16-29%)
- herbicide rating, VERPE [21]: 1 (1-5%)
- herbicide rating, CHEAL [22]: 6 (65-79%)
- herbicide rating, ABUTH [23]: 8 (91-99%)
- herbicide rating, ALOMY [24]: 0

SMILES: O=C(NCc1cccs1)c1nc(-c2cccc(F)c2)ns1 [Example 44]
- SET VI rating [1]: 3 (16-29%)
- HOR VW rating [2]: 0
- ZEA MX rating [3]: 0
- AMA RE rating [4]: 0
- HEL AN rating [5]: 0
- GAL AP rating [6]: 0
- IPO HE rating [7]: 3 (16-29%)
- VER PE rating [8]: 0
- CHE AL rating [9]: 0
- ABU TH rating [10]: 0
- TRZ AW rating [11]: 0
- SET VI rating [12]: 3 (16-29%)
- ZEA MX rating [13]: 2 (6-15%)
- AMA RE rating [14]: 0
- HOR VW rating [15]: 3 (16-29%)
- HEL AN rating [16]: 0
- GAL AP rating [17]: 3 (16-29%)
- IPO HE rating [18]: 3 (16-29%)
- ALO MY rating [19]: 0
- TRZ AW rating [20]: 3 (16-29%)
- VER PE rating [21]: 0
- CHE AL rating [22]: 0
- ABU TH rating [23]: 0
- ALO MY rating [24]: 4 (30-44%)

SMILES: COc1ccc(-c2nc(C(=O)NC(C)c3cccs3)ns2)cc1 (racemic) [Example 51, (R/S)-5-(4-Methoxyphenyl)-[1,2,4]thiadiazole-3-carboxylic acid, [1-(2-thienyl)ethyl]amide]
- SET VI rating [1]: 0
- HOR VW rating [2]: 2 (6-15%)
- ZEA MX rating [3]: 0
- AMA RE rating [4]: 5 (45-64%)
- HEL AN rating [5]: 1 (1-5%)
- GAL AP rating [6]: 0
- IPO HE rating [7]: 0
- VER PE rating [8]: 0
- CHE AL rating [9]: 0
- ABU TH rating [10]: 3 (16-29%)
- TRZ AW rating [11]: 2 (6-15%)
- SET VI rating [12]: 8 (91-99%)
- ZEA MX rating [13]: 5 (45-64%)
- AMA RE rating [14]: 4 (30-44%)
- HOR VW rating [15]: 5 (45-64%)
- HEL AN rating [16]: 8 (91-99%)
- GAL AP rating [17]: 6 (65-79%)
- IPO HE rating [18]: 8 (91-99%)
- ALO MY rating [19]: 5 (45-64%)
- TRZ AW rating [20]: 3 (16-29%)
- VER PE rating [21]: 8 (91-99%)
- CHE AL rating [22]: 4 (30-44%)
- ABU TH rating [23]: 6 (65-79%)
- ALO MY rating [24]: 3 (16-29%)
